Test results reported in patent US20260373174A1, “THYROID BETA-AGONIST DOSING REGIMENS FOR THE TREATMENT OF X-ALD” (Viking Therapeutics, Inc., priority 2022, published 2026).

Assay: previous phase 1 study, single and multiple dose cohorts
Type: in vivo, human
Details: doses used in this study (20, 40, 60, 80 mg QD, oral); preliminary results from 6 multiple dose cohorts (up to 100 mg) and 7 single dose cohorts (up to 125 mg)

For `Cc1cc(OCP(=O)(O)O)cc(C)c1Cc1ccc(O)c(Cc2ccccc2)c1` [Compound 1], the lipid plasma levels was “lowering of lipid plasma levels” and the safety was “without safety issues”.
